These results are taken from US11246934B2, “Nanoparticles and methods for preparation thereof” (B.G. Negev Technologies & Applications Ltd. at Ben-Gurion …, priority 2015, dated 2022).

The subject of data set [1] is melanoma B16F0 cells. Kind of data set: B16F0 melanoma tumor model in mice. The settings on record: day 18 of treatment, 0.5 mg/kg s.c. twice a week.
Protocol: Female C57BL/6 mice (5-6 weeks old, 14-18 g) were obtained from Harlan Laboratories Ltd (Jerusalem, Israel). Mice were housed under humidity- and temperature-controlled conditions, and the light/dark cycle was set at 12-h intervals.
B16F0 melanoma cells were maintained in RPMI 1640 medium supplemented with 10% bovine serum and 200 μM L-glutamine, 10 units/mL penicillin, and 10 μg/mL streptomycin (Biological Industries, Beth Ha'Emek, Israel). The cells were kept at 37° C. in a 5% CO2 humidified atmosphere.
The mice were inoculated with melanoma B16F0 cells (1×10^6) subcutaneously in the right flank of the mice. After tumors had been visualized a week later, the mice were weighed and measured for tumor size (244±213 mm^3), and were randomly sorted into three groups. […] Tumor volumes and mouse body weights were measured routinely before each treatment. Measurement of tumor size was performed with a caliper in two dimensions, and individual tumor volumes (V) were calculated by the formula: V=[length×(width)^2]×π/6.
The statistical differences between the therapeutic effects of different treatments on tumor growth were determined by two-tailed Student's test. […]
Data set [2] deals with MCF-7 cells (cell line of breast cancer). Kind of data set: MTT cytotoxicity assay in MCF-7 cell line. Format: cell-based. Particulars: MCF-7, at 1 mg/ml. As to the method: The direct effect of curcumin and doxorubicin on the viability of cultured cells was assessed in vitro using the MCF-7 cells (cell line of breast cancer). […] Fresh cell medium was then prepared with test compounds in appropriate dilutions (equivalent to their concentrations as determined by HPLC). Cell growth after 48 h was assayed by MTT assay [3-(4,5-Dimethylthiazol-2-yl)-2,5-diphenyltetrazolium bromide, Sigma-Aldrich] and was evaluated by measuring the absorbance at 540 nm after 3 h of incubation in a medium containing 0.5 mg/ml MTT (Sunrise™ absorbance plate reader, TECAN). […] FIG. 13C presents dose response behavior of DOX-loaded and unloaded NPs vs. solutions at various concentrations after 24-h and 48-h incubation.
(Tetrazolium assays rely on reduction of a dye to a coloured formazan, in cell work by metabolically active cells.)

For data set [3] the following is noted: topically applied, eye drops; cited from earlier work.
Data set [4] can be described thus: Dynamic dialysis of chloramphenicol, apparent dialysis bag permeability constant. Format: physicochemical. Particulars: dialysis bag 10K MWCO, NaCl 0.9% w/v. As to the method:
The amount of drug released from the NPs was determined by a dynamic dialysis technique monitoring the drug concentration in the receiver solution (i.e., outer solution surrounding a dialysis bag). The method is based on the assumption that drug is first released from the NPs into the donor solution (i.e., the dissolution medium inside the dialysis bag). Subsequently, the drug can diffuse through the dialysis bag from the donor to the receiver.
A sample of 3 ml of the NP dispersion (1:1 diluted with saline) was introduced into a dialysis bag (SnakeSkin Dialysis Tubing, 10K MWCO, 22 mm, Thermo Fisher Scientific, Rockford, USA). The sample was dialyzed against 60 ml of saline solution (NaCl solution, 0.9%, w/v) for 7 hours. The receiver solution was agitated by magnetic stirring throughout the experimental procedure. Samples of 200 μl were withdrawn from the receiver solution at predetermined time intervals and their drug concentrations were measured by HPLC.
The apparent dialysis bag permeability constant (k′) was calculated according to the method described in ‘Materials and Methods’ section 2.6. […]

Each structure is given as a SMILES string. Structures can show the parent of a compound that is named as a salt.

Turning to `COc1cccc2c1C(=O)c1c(O)c3c(c(O)c1C2=O)C[C@@](O)(C(=O)CO)C[C@@H]3O[C@H]1C[C@H](N)[C@H](O)[C@H](C)O1` [DOX-HCl solution, doxorubicin], in data set [1], the survival was 58%. The cytotoxicity entry in data set [2] is “highly cytotoxic”.
What is called half-life is the time in which the quantity being followed falls by half. `O=C(N[C@H](CO)[C@H](O)c1ccc([N+](=O)[O-])cc1)C(Cl)Cl` [chloramphenicol]: in data set [3], the bioavailability was 1-10% and the half-life was 1.5 to 5 h. Further, the “apparent permeability constant (k′)” value in data set [4] came out at 1.207 ± 0.018 h⁻¹.
